{"source": "patent US20100144868A1", "about": "“Novel Neuroprotective Compounds and Uses Thereof” (Ramot At Aviv University Ltd., priority 2005, published 2010)", "key": {"[1]": {"conditions": "for Increase of maximal aqueous solubility: with a 10 fold increase in DMSO content", "method": "20 mg of each of the tested hybrid compounds of the present invention was dissolved in 0.2 ml of DMSO and then diluted with 200 ml, 40 ml, 20 ml and 10 ml of water to obtain a 0.1%, 0.5% 0.1% and 2.0% DMSO content in the aqueous solution, respectively. Each aqueous solution was sonicated for 2 minutes, filtered through 0.2 micron filter and centrifuged at 14,000 rpm for 3 minutes. UV-VIS spectra were obtained thereafter at 476 nm to determine the solubilized fraction of the tested hybrid compound."}, "[2]": {"tested_on": "MOG-induced EAE in NOD mice", "experiment": "Efficacy in MOG-induced EAE in NOD mice, daily treatment from day 20 to day 70", "format": "in vivo", "conditions": "for Severity of EAE (in words): compared to carboxyfullerene treated and vehicle (PBS) treated mice, Table 3, FIG. 3; for Phase II Second Peak Mean Score Disease / Phase III Third Peak Mean Score Disease / Phase IV Secondary Progressive Mean Score Disease: scale 0-5; for Cumulative Score: days 21-70; for Prevalence of Disease with score above 1.5: treated daily from day 20 after immunization to day 70; for Phase IV Secondary Progressive Mean Score Disease: day 70", "protocol": "Non-obese diabetic (NOD) mice were purchased from Jackson laboratories. The mice were maintained in viral antibody-free (VAF) facility at Harvard Institutes of Medicine animal care facility and used at 10 weeks of age.\nMyelin oligodendrocyte glycoprotein (MOG 35-55) was synthesized at the peptide/protein facility at the center for neurologic disease at BWH, Boston, Mass., USA.\n(§1) Mice were immunized S.C. with 150 μg of MOG 35-55 peptide in […].\n(§2) Pertussis toxin was given I.V. (150 ng per mouse) at the time of immunization and 48 hours later. The severity of disease was evaluated daily on the following scale: 0 for no clinical symptoms; 1 for distal tail weakness or tail atonia; 2 for impaired righting reflex and slight hind limb paralysis; 3 for complete paralysis affecting of both hind limbs; 4 for complete paralysis affecting of both hind limbs and fore limb weakness, or moribund state; and 5 for death."}, "[3]": {"tested_on": "spinal cord of EAE-induced NOD mice", "experiment": "Histological staining of spinal cord sections of EAE-induced NOD mice (Bielschowsky silver, Luxol fast blue)", "format": "in vivo", "protocol": "The attenuation of EAE progress in model animals was further tested by following pathological findings thereof in 7 μm coronal spinal cord section samples of the tested mice under cryogenic conditions. The axonal pathology analysis was performed on day 63 post-immunization by immunostaining of spinal cord sections. Spinal cord sections from mice were fixed in 4% paraformaldehyde overnight followed by 4.5% sucrose for 4 hours, then 20% sucrose for overnight at 4° C. Spinal cord sections were frozen and stored until used at −80° C.\nHistological staining studies of spinal cord sections were preformed according to the Bielschowsky silver staining method, which specifically stains nerve fibers and axons so as to appear in black when observed under an optical microscope, and according to the Luxol fast blue staining method, which specifically stains myelin/myelinated axons so as to stain the myelin in blue-green while the neuron remains pink when observed under an optical microscope. Reduction in the degree of staining expresses damage to the neuron.\nThe Bielschowsky silver staining was performed as described before in Litchfield and Nagy, Acta Neuropathol (Berl) 2001, 101(1), pp. 17-21. Briefly, spinal cord sections were place in pre-warmed solution of 10% silver nitrate placed in a 40° C. oven and shaken for 15 minutes until sections became light brown in color, and thereafter rinsed in water. The spinal cord sections were thereafter placed back in the same ammonium silver solution and placed in a 40° C. oven for additional 30 minutes and rinse in water followed by dehydration in 95% ethyl alcohol, absolute alcohol and xylene.\nThe Luxol fast blue staining was perform as described before in Dolcetta et al J Neurosci Res.; 81(4):597-604. Briefly, spinal cord sections were placed in luxol fast blue solution in a 56° C. oven for 16 hours and rinsed with 95% ethyl alcohol and distilled water. Thereafter the spinal cord sections were placed in carbonate solution for 30 seconds and rinsed in water followed by dehydration in 95% ethyl alcohol, absolute alcohol and xylene. […]"}, "[4]": {"tested_on": "MOG-induced EAE in NOD mice", "experiment": "Efficacy in MOG-induced EAE in NOD mice, Compound 20 at two doses compared to NBQX, daily from day 23", "format": "in vivo", "protocol": "as §1, §2"}, "[5]": {"conditions": "0.1% DMSO content in final aqueous solution"}, "[6]": {"conditions": "0.5% DMSO content in final aqueous solution"}}, "note": "“Also recorded” adds a separate entry of the source. Where two headings read alike, the source gives them in different places. Marks after values point to notes of the source that are not given here."}
{"molecule": "2,2-fullerenyl-malonic acid bis(adamantan-1-ylcarbamate-diethyleneglycol) ester [Compound 16]", "values": [{"measurement": "Increase of maximal aqueous solubility", "setting": "[1]", "result": 20, "unit": "fold"}]}
{"molecule": "2,2-fullerenyl-malonic acid bis(adamantan-1-ylcarbamate-poly(n)ethyleneglycol) ester wherein average n=10 [Compound 19]", "values": [{"measurement": "Maximal aqueous concentration", "setting": "[1]; [5]", "result": "1.17 10^−5 M"}, {"measurement": "Maximal aqueous concentration", "setting": "[1]; [6]", "result": "5.12 10^−5 M"}, {"measurement": "Maximal aqueous concentration", "setting": "[1]; 1.0% DMSO content in final aqueous solution", "result": "6.97 10^−5 M"}, {"measurement": "Increase of maximal aqueous solubility", "setting": "[1]", "result": 6, "unit": "fold"}]}
{"molecule": "2,2-fullerenyl-malonic acid bis(adamantan-1-ylcarbamate-poly(n)ethyleneglycol) ester wherein average n=10 [Compound 20]", "values": [{"measurement": "Severity of EAE (in words)", "setting": "[2]", "result": "clearly reduce the severity of relapsing-remitting EAE; also recorded: reduction in severity of the disease"}, {"measurement": "Phase II Second Peak Mean Score Disease", "setting": "[2]; day 26", "result": "0.70*"}, {"measurement": "Phase II Second Peak Mean Score Disease", "setting": "[2]; day 27", "result": "0.55*"}, {"measurement": "Phase III Third Peak Mean Score Disease", "setting": "[2]; day 31", "result": "0.60*"}, {"measurement": "Phase III Third Peak Mean Score Disease", "setting": "[2]; day 38", "result": "0.65*"}, {"measurement": "Cumulative Score", "setting": "[2]", "result": "53.0*"}, {"measurement": "Prevalence of Disease with score above 1.5", "setting": "[2]", "result": "4/10"}, {"measurement": "Axonal density / axonal damage in white matter of spinal cord (in words)", "setting": "[3]; Bielschowsky silver impregnation, day 63 post-immunization, compared to untreated control mice, FIG. 5", "result": "reduction of EAE-derived axonal damage; also recorded: lower reduction in axonal density"}, {"measurement": "Demyelination of axons in white matter of spinal cord (in words)", "setting": "[3]; Luxol fast blue staining, compared to untreated control mice, FIG. 6", "result": "reduction in demyelination of axons"}, {"measurement": "Progression of chronic EAE as damage to neurons (in words)", "setting": "[3]; treatment initiated after disease onset, FIGS. 5 and 6", "result": "lesser damage caused to the neurons"}, {"measurement": "Severity of the disease, mean disease score (in words)", "setting": "[4]; 30 μg/Kg and 300 μg/Kg, compared to NBQX treated and untreated mice, FIG. 4", "result": "reduction in severity of the disease"}, {"measurement": "Death", "setting": "[4]; 30 μg/Kg daily from day 23", "result": "0/14"}, {"measurement": "Phase II Second Peak Mean Score Disease", "setting": "[4]; 30 μg/Kg daily from day 23, day 37", "result": "1.60*"}, {"measurement": "Phase II Second Peak Mean Score Disease", "setting": "[4]; 30 μg/Kg daily from day 23, day 41", "result": "1.50*"}, {"measurement": "Phase III Secondary Progressive Mean Score Disease", "setting": "[4]; 30 μg/Kg daily from day 23, day 62", "result": "2.12*"}, {"measurement": "Phase III Secondary Progressive Mean Score Disease", "setting": "[4]; 30 μg/Kg daily from day 23, day 63", "result": "2.15*"}, {"measurement": "Protection from progression of chronic EAE (in words)", "setting": "[4]; 30 μg/Kg daily, compared to 300 μg/Kg", "result": "significantly protect progression of chronic EAE"}, {"measurement": "Death", "setting": "[4]; 300 μg/Kg daily from day 23", "result": "2/14"}, {"measurement": "Phase II Second Peak Mean Score Disease", "setting": "[4]; 300 μg/Kg daily from day 23, day 37", "result": 2.25}, {"measurement": "Phase II Second Peak Mean Score Disease", "setting": "[4]; 300 μg/Kg daily from day 23, day 41", "result": 2.25}, {"measurement": "Phase III Secondary Progressive Mean Score Disease", "setting": "[4]; 300 μg/Kg daily from day 23, day 62", "result": 3.08}, {"measurement": "Phase III Secondary Progressive Mean Score Disease", "setting": "[4]; 300 μg/Kg daily from day 23, day 63", "result": 3.17}]}
{"molecule": "2,2-fullerenyl-malonic acid bis(adamantan-1-ylcarbamate-tetraethyleneglycol) ester [Compound 6]", "values": [{"measurement": "Severity of EAE (in words)", "setting": "[2]", "result": "clearly reduce the severity of relapsing-remitting EAE; also recorded: reduction in severity of the disease"}, {"measurement": "Phase II Second Peak Mean Score Disease", "setting": "[2]; day 26", "result": "0.75*"}, {"measurement": "Phase II Second Peak Mean Score Disease", "setting": "[2]; day 27", "result": 0.80}, {"measurement": "Phase III Third Peak Mean Score Disease", "setting": "[2]; day 31", "result": "0.90*"}, {"measurement": "Phase III Third Peak Mean Score Disease", "setting": "[2]; day 38", "result": 1.30}, {"measurement": "Phase IV Secondary Progressive Mean Score Disease", "setting": "[2]", "result": 2.85}, {"measurement": "Cumulative Score", "setting": "[2]", "result": 90.6}, {"measurement": "Prevalence of Disease with score above 1.5", "setting": "[2]", "result": "9/10"}, {"measurement": "Maximal aqueous concentration", "setting": "[1]; [5]", "result": "1.18 10^−5 M"}, {"measurement": "Maximal aqueous concentration", "setting": "[1]; [6]", "result": "1.38 10^−5 M"}, {"measurement": "Maximal aqueous concentration", "setting": "[1]; 2.0% DMSO content in final aqueous solution", "result": 0.036, "unit": "mg/mL"}, {"measurement": "Increase of maximal aqueous solubility", "setting": "[1]", "result": "more than 2.6 fold"}]}
{"molecule": "O=C(O)C1(C(=O)O)C2=C1C1C3C4=c5c6c7c8c(c9c(c%10c%11c%12c%13c%14c%15c%16c(c2c3c%16c5c%14c6c%12c%108)C=CC%152C(C(=O)O)(C(=O)O)C%132C=C%11)C9(C(=O)O)C(=O)O)C2C=CC1C4C72", "note": "(stereo not drawn) [Carboxyfullerene, C3-stereoisomer of trimalonic acid derivative of a C60 fullerene, reference compound]", "values": [{"measurement": "Phase II Second Peak Mean Score Disease", "setting": "[2]; day 26", "result": 1.00}, {"measurement": "Phase II Second Peak Mean Score Disease", "setting": "[2]; day 27", "result": 0.85}, {"measurement": "Phase III Third Peak Mean Score Disease", "setting": "[2]; day 31", "result": 1.15}, {"measurement": "Phase III Third Peak Mean Score Disease", "setting": "[2]; day 38", "result": 1.45}, {"measurement": "Phase IV Secondary Progressive Mean Score Disease", "setting": "[2]", "result": 2.65}, {"measurement": "Cumulative Score", "setting": "[2]", "result": 87.45}, {"measurement": "Prevalence of Disease with score above 1.5", "setting": "[2]", "result": "8/10"}]}
{"molecule": "NS(=O)(=O)c1cccc2c1c([N+](=O)[O-])cc1nc(O)c(O)nc12", "note": "[NBQX, 2,3-dihydroxy-6-nitro-7-sulfamoyl-benzo(f)quinoxaline, reference compound]", "values": [{"measurement": "Death", "setting": "[4]; 30 mg/Kg daily from day 23", "result": "6/14"}, {"measurement": "Phase II Second Peak Mean Score Disease", "setting": "[4]; 30 mg/Kg daily from day 23, day 37", "result": 1.75}, {"measurement": "Phase II Second Peak Mean Score Disease", "setting": "[4]; 30 mg/Kg daily from day 23, day 41", "result": 1.88}, {"measurement": "Phase III Secondary Progressive Mean Score Disease", "setting": "[4]; 30 mg/Kg daily from day 23, day 62", "result": 3.31}, {"measurement": "Phase III Secondary Progressive Mean Score Disease", "setting": "[4]; 30 mg/Kg daily from day 23, day 63", "result": 3.38}, {"measurement": "Suppression of the second phase of EAE (in words)", "setting": "[4]; 30 mg/Kg, Table 4, FIG. 4", "result": "showed a tendency to suppress the second phase of EAE"}, {"measurement": "Preventing the chronic disease progression (in words)", "setting": "[4]; NBQX 30 mg/Kg compared to Compound 20 at 30 and 300 μg/Kg", "result": "not as effective as the Compound 20"}]}
